Results reported in ChEMBL document CHEMBL1123856, “Synthesis and biological activities of arginine-vasopressin analogues with 4-hydroxyproline in position 7” (1987).
Positions of bridges follow the written chain, without caps; N, C: chain ends. Non-standard residues stand in square brackets, D forms with d. Residues, ends and D or L forms follow the SMILES beside them. NMeA = CN[C@@H](C)C(=O)O; Mpa = O=C(O)CCS

Legend:
Rattus norvegicus [1] = assay: Antidiuretic activity on water loaded, ethanol-anesthetized rat.; format: functional, Urine
Rattus norvegicus [2] = assay: Pressor activity on urethane-anesthetized, phenoxybenzamine-treated rat.; format: functional
Rattus norvegicus [3] = species on record: Rattus norvegicus; assay: Uterine activity was meseared in isolated rat uterus in solutions in the absence No Mg2+ 0.5 mM in vitro; format: functional
Rattus norvegicus [4] = species on record: Rattus norvegicus; assay: Uterine activity was meseared in isolated rat uterus in solutions in the presence Mg2+ 0.5 mM in vitro; format: functional

## NC(=O)CC[C@@H]1NC(=O)[C@H](Cc2ccccc2)NC(=O)[C@H](Cc2ccc(O)cc2)NC(=O)CCSSC[C@@H](C(=O)N2CC=C[C@H]2C(=O)N[C@@H](CCCN=C(N)N)C(=O)NCC(N)=O)NC(=O)[C@H](CC(N)=O)NC1=O
Rattus norvegicus [1]
  Antidiuretic activity: 4130 units/mg
Rattus norvegicus [2]
  Pressor activity: 240 units/mg
Rattus norvegicus [3]
  Uterine activity: 69 units/mg

## CC(C)C[C@H](NC(=O)[C@@H]1CSSC[C@H](N)C(=O)N[C@@H](Cc2ccc(O)cc2)C(=O)N[C@@H](Cc2ccccc2)C(=O)N[C@@H](CCC(N)=O)C(=O)N[C@@H](CC(N)=O)C(=O)N1)C(=O)N[C@@H](CCCN=C(N)N)C(=O)NCC(N)=O (H-CYFQNCLRG-NH2; disulfide 1-6)
Rattus norvegicus [1]
  Antidiuretic activity: 19 units/mg

## C[C@@H](C(=O)N[C@@H](CCCN=C(N)N)C(=O)NCC(N)=O)N(C)C(=O)[C@@H]1CSSCCC(=O)N[C@@H](Cc2ccc(O)cc2)C(=O)N[C@@H](Cc2ccccc2)C(=O)N[C@@H](CCC(N)=O)C(=O)N[C@@H](CC(N)=O)C(=O)N1 ([Mpa]YFQNC[NMeA]RG-NH2; disulfide 1-6)
Rattus norvegicus [1]
  Antidiuretic activity: 113 units/mg
Rattus norvegicus [2]
  Pressor activity: 1 units/mg
Rattus norvegicus [3]
  Uterine activity: 2 units/mg
Rattus norvegicus [4]
  Uterine activity: 8 IU/mg

## NC(=O)CC[C@@H]1NC(=O)[C@H](Cc2ccccc2)NC(=O)[C@H](Cc2ccc(O)cc2)NC(=O)[C@@H](N)CSSC[C@@H](C(=O)N2C[C@H](O)C[C@H]2C(=O)N[C@@H](CCCN=C(N)N)C(=O)NCC(N)=O)NC(=O)[C@H](CC(N)=O)NC1=O (stereo in doubt; form 1)
Rattus norvegicus [1]
  Antidiuretic activity: 712 units/mg
Rattus norvegicus [2]
  Pressor activity: 4 units/mg
Rattus norvegicus [3]
  Uterine activity: 73 units/mg
Rattus norvegicus [4]
  Uterine activity: 268 IU/mg

## NC(=O)CC[C@@H]1NC(=O)[C@H](Cc2ccccc2)NC(=O)[C@H](Cc2ccc(O)cc2)NC(=O)[C@@H](N)CSSC[C@@H](C(=O)N2C[C@H](O)C[C@H]2C(=O)N[C@@H](CCCN=C(N)N)C(=O)NCC(N)=O)NC(=O)[C@H](CC(N)=O)NC1=O (stereo in doubt; form 2)
Rattus norvegicus [1]
  Antidiuretic activity: 780 units/mg
Rattus norvegicus [2]
  Pressor activity: 1 units/mg
Rattus norvegicus [3]
  Uterine activity: 225 units/mg
Rattus norvegicus [4]
  Uterine activity: 285 IU/mg

## NC(=O)CC[C@@H]1NC(=O)[C@H](Cc2ccccc2)NC(=O)[C@H](Cc2ccc(O)cc2)NC(=O)[C@@H](N)CSSC[C@@H](C(=O)N2C[C@H](O)C[C@H]2C(=O)N[C@@H](CCCN=C(N)N)C(=O)NCC(N)=O)NC(=O)[C@H](CC(N)=O)NC1=O (stereo in doubt; form 3)
Rattus norvegicus [1]
  Antidiuretic activity: 614 units/mg
Rattus norvegicus [2]
  Pressor activity: 8 units/mg
Rattus norvegicus [3]
  Uterine activity: 63 units/mg
Rattus norvegicus [4]
  Uterine activity: 176 IU/mg

## N=C(N)NCCC[C@@H](NC(=O)[C@@H]1CCCN1C(=O)[C@@H]1CSSCCC(=O)N[C@@H](Cc2ccc(O)cc2)C(=O)N[C@@H](Cc2ccccc2)C(=O)N[C@@H](CCC(N)=O)C(=O)N[C@@H](CC(N)=O)C(=O)N1)C(=O)NCC(N)=O [DESMOPRESSIN]
Rattus norvegicus [1]
  Antidiuretic activity: 1740 units/mg
Rattus norvegicus [2]
  Pressor activity: 346 units/mg
Rattus norvegicus [3]
  Uterine activity: 28 units/mg

## N=C(N)NCCC[C@H](NC(=O)[C@@H]1CCCN1C(=O)[C@@H]1CSSC[C@H](N)C(=O)N[C@@H](Cc2ccc(O)cc2)C(=O)N[C@@H](Cc2ccccc2)C(=O)N[C@@H](CCC(N)=O)C(=O)N[C@@H](CC(N)=O)C(=O)N1)C(=O)NCC(N)=O [VASOPRESSIN]
Rattus norvegicus [1]
  Antidiuretic activity: 323 units/mg
Rattus norvegicus [3]
  Uterine activity: 12 units/mg
